Test results as given in patent US20070128217A1 (priority 2003, published 2007).

What was measured:
[1] = tested on: antibodies in sera from SARS patients (sera 1a, 1b, 2, 6, 37, 62, London, SARS-yellow, SARS-green); assay type: binding, human; parameters: Binding of serum 6 to linear peptides of protein X1 of SARS-CoV Urbani / Binding of serum 37 to linear peptides of protein X1 of SARS-CoV Urbani / Binding of serum 6 to looped/cyclic peptide (PEPSCAN-ELISA) / Binding of serum 37 to looped/cyclic peptide (PEPSCAN-ELISA) / Binding of serum 37 to looped/cyclic peptides of protein X1 of SARS-CoV Urbani / Binding of serum 6 to linear peptides of protein X2 / Binding of serum 37 to linear peptides of protein X2 / Binding of serum 37 to looped/cyclic peptides of protein X2 of SARS-CoV Urbani / Binding of serum 6 to linear peptides of protein M of SARS-CoV Urbani / Binding of serum 37 to linear peptides of protein M of SARS-CoV Urbani / Binding of serum 6 to looped/cyclic peptides of protein M of SARS-CoV Urbani / Binding of serum 37 to looped/cyclic peptides of protein M of SARS-CoV Urbani / Binding of serum 6 to linear peptides of protein X3 of SARS-CoV Urbani / Binding of serum 37 to linear peptides of protein X3 of SARS-CoV Urbani / Binding of serum 37 to looped/cyclic peptides of protein X3 of SARS-CoV Urbani / Binding of serum 6 to linear peptides of protein X4 of SARS-CoV Urbani / Binding of serum 37 to linear peptides of protein X4 of SARS-CoV Urbani / Binding of serum 37 to looped/cyclic peptides of protein X4 of SARS-CoV Urbani / Binding of serum 6 to linear peptides of protein X5 of SARS-CoV Urbani / Binding of serum 37 to linear peptides of protein X5 of SARS-CoV Urbani / Binding of serum 37 to looped/cyclic peptides of protein X5 of SARS-CoV Urbani / Binding of serum 6 to linear peptides of protein N of SARS-CoV Urbani / Binding of serum 37 to linear peptides of protein N of SARS-CoV Urbani / Binding of serum 6 to linear peptide (PEPSCAN-ELISA) / Binding of serum 1a to looped/cyclic peptides of protein N of SARS-CoV Urbani / Binding of serum 1b to looped/cyclic peptides of protein N of SARS-CoV Urbani / Binding of serum 2 to looped/cyclic peptides of protein N of SARS-CoV Urbani / Binding of serum 6 to looped/cyclic peptides of protein N of SARS-CoV Urbani / Binding of serum 37 to looped/cyclic peptides of protein N of SARS-CoV Urbani / Binding of serum 62 to looped/cyclic peptides of protein N of SARS-CoV Urbani / Binding of serum London to looped/cyclic peptides of protein N of SARS-CoV Urbani / Binding of serum SARS-green to looped/cyclic peptides of protein N of SARS-CoV Urbani: unit not given here
[2] = tested on: rabbit serum obtained by immunizing a rabbit with the SARS-CoV strain Frankfurt 1; assay type: binding; parameters: Binding of a rabbit serum to linear peptides / Binding of a rabbit serum to looped peptides / Rabbit serum linear peptides / Rabbit serum looped peptides / Binding of a rabbit serum to linear peptides of protein N of SARS-CoV Urbani (Rabbit serum linear peptides) / Binding of a rabbit serum to looped/cyclic peptides of protein N of SARS-CoV Urbani (Rabbit serum looped peptides): unit not given here
[3] = tested on: control sera (pooled serum of ten healthy LUMC hospital workers; commercial negative donor pooled serum from the Dutch bloodbank); assay type: binding, human; parameters: Binding of Control serum LUMC to linear peptides / Binding of Control serum Blood-bank to linear peptides / Binding of Control serum LUMC to looped peptides / Binding of Control Serum Blood-Bank to Looped peptides / Binding of Control serum LUMC to linear peptides of the protein M of SARS-CoV Urbani / Binding of Control serum Blood-bank to linear peptides of the protein M of SARS-CoV Urbani / Binding of Control serum LUMC to looped peptides of the protein M of SARS-CoV Urbani / Binding of Control Serum Blood-Bank to Looped peptides of the protein M of SARS-CoV Urbani: unit not given here

Sequence: WKCKSKNPLLYDANY
- Binding of serum 1a to linear peptides of protein X1 of SARS-CoV Urbani [1]: 0.8
- Binding of serum 1a to looped/cyclic peptide (PEPSCAN-ELISA) [1]: 0.6
- Binding of serum 1b to linear peptides of protein X1 of SARS-CoV Urbani [1]: 0.8
- Binding of serum 1b to looped/cyclic peptide (PEPSCAN-ELISA) [1]: 0.5
- Binding of serum 2 to linear peptides of protein X1 of SARS-CoV Urbani [1]: 0.6
- Binding of serum 2 to looped/cyclic peptide (PEPSCAN-ELISA) [1]: 0.4
- Binding of serum 6 to linear peptides of protein X1 of SARS-CoV Urbani [1]: 0.7
- Binding of serum 6 to looped/cyclic peptide (PEPSCAN-ELISA) [1]: 0.3
- Binding of serum 37 to linear peptides of protein X1 of SARS-CoV Urbani [1]: 0.8
- Binding of serum 37 to looped/cyclic peptide (PEPSCAN-ELISA) [1]: 0.6
- Binding of serum 62 to linear peptides of protein X1 of SARS-CoV Urbani [1]: 0.7
- Binding of serum 62 to looped/cyclic peptide (PEPSCAN-ELISA) [1]: 0.6
- Binding of serum London to linear peptides of protein X1 of SARS-CoV Urbani [1]: 0.3
- Binding of serum London to looped/cyclic peptide (PEPSCAN-ELISA) [1]: 0.2
- Binding of serum SARS-green to linear peptides of protein X1 of SARS-CoV Urbani [1]: 0.4
- Binding of serum SARS-green to looped/cyclic peptide (PEPSCAN-ELISA) [1]: 0.3
- Binding of serum SARS-yellow to linear peptides of protein X1 of SARS-CoV Urbani [1]: 0.5
- Binding of serum SARS-yellow to looped/cyclic peptide (PEPSCAN-ELISA) [1]: 0.5
- Binding of a rabbit serum to linear peptides [2]: 0.1
- Binding of a rabbit serum to looped peptides [2]: 0.6
- Binding of Control Serum Blood-Bank to Looped peptides [3]: 0.6
- Binding of Control serum Blood-bank to linear peptides [3]: 0.7
- Binding of Control serum LUMC to linear peptides [3]: 0.8
- Binding of Control serum LUMC to looped peptides [3]: 0.5

Sequence: FACADGTRHTYQLRA
- Binding of serum 1a to linear peptides of protein X4 of SARS-CoV Urbani [1]: 0.7
- Binding of serum 1a to looped/cyclic peptides of protein X4 of SARS-CoV Urbani [1]: 0.7
- Binding of serum 1b to linear peptides of protein X4 of SARS-CoV Urbani [1]: 0.4
- Binding of serum 1b to looped/cyclic peptides of protein X4 of SARS-CoV Urbani [1]: 0.6
- Binding of serum 2 to linear peptides of protein X4 of SARS-CoV Urbani [1]: 0.4
- Binding of serum 2 to looped/cyclic peptides of protein X4 of SARS-CoV Urbani [1]: 0.6
- Binding of serum 6 to linear peptides of protein X4 of SARS-CoV Urbani [1]: 0.4
- Binding of serum 6 to looped/cyclic peptides of protein X4 of SARS-CoV Urbani [1]: 0.3
- Binding of serum 37 to linear peptides of protein X4 of SARS-CoV Urbani [1]: 0.6
- Binding of serum 37 to looped/cyclic peptides of protein X4 of SARS-CoV Urbani [1]: 0.7
- Binding of serum 62 to linear peptides of protein X4 of SARS-CoV Urbani [1]: 0.7
- Binding of serum 62 to looped/cyclic peptides of protein X4 of SARS-CoV Urbani [1]: 0.7
- Binding of serum London to linear peptides of protein X4 of SARS-CoV Urbani [1]: 0.8
- Binding of serum London to looped/cyclic peptides of protein X4 of SARS-CoV Urbani [1]: 0.4
- Binding of serum SARS-green to linear peptides of protein X4 of SARS-CoV Urbani [1]: 0.5
- Binding of serum SARS-green to looped/cyclic peptides of protein X4 of SARS-CoV Urbani [1]: 0.8
- Binding of serum SARS-yellow to linear peptides of protein X4 of SARS-CoV Urbani [1]: 0.2
- Binding of serum SARS-yellow to looped/cyclic peptides of protein X4 of SARS-CoV Urbani [1]: 0.3
- Recognition of the peptide by the rabbit serum [2]: recognized
- Binding of Control Serum Blood-Bank to Looped peptides [3]: 0.3
- Binding of Control serum Blood-bank to linear peptides [3]: 0.7
- Binding of Control serum LUMC to linear peptides [3]: 0.4
- Binding of Control serum LUMC to looped peptides [3]: 0.4

Sequence: TMTTVYHITVSQIQL
- Binding of serum 1a to linear peptides of protein X2 [1]: 0.6
- Binding of serum 1a to looped/cyclic peptides of protein X2 of SARS-CoV Urbani [1]: 0.4
- Binding of serum 1b to linear peptides of protein X2 [1]: 0.2
- Binding of serum 1b to looped/cyclic peptides of protein X2 of SARS-CoV Urbani [1]: 0.4
- Binding of serum 2 to linear peptides of protein X2 [1]: 0.4
- Binding of serum 2 to looped/cyclic peptides of protein X2 of SARS-CoV Urbani [1]: 0.3
- Binding of serum 6 to linear peptides of protein X2 [1]: 0.5
- Binding of serum 6 to looped/cyclic peptides of protein X2 of SARS-CoV Urbani [1]: 0.2
- Binding of serum 37 to linear peptides of protein X2 [1]: 0.7
- Binding of serum 37 to looped/cyclic peptides of protein X2 of SARS-CoV Urbani [1]: 0.4
- Binding of serum 62 to linear peptides of protein X2 [1]: 0.3
- Binding of serum 62 to looped/cyclic peptides of protein X2 of SARS-CoV Urbani [1]: 0.5
- Binding of serum London to linear peptides of protein X2 [1]: 0.4
- Binding of serum London to looped/cyclic peptides of protein X2 of SARS-CoV Urbani [1]: 0.2
- Binding of serum SARS-green to linear peptides of protein X2 [1]: 0.2
- Binding of serum SARS-green to looped/cyclic peptides of protein X2 of SARS-CoV Urbani [1]: 0.3
- Binding of serum SARS-yellow to linear peptides of protein X2 [1]: 0.7
- Binding of serum SARS-yellow to looped/cyclic peptides of protein X2 of SARS-CoV Urbani [1]: 0.3
- Binding of a rabbit serum to linear peptides [2]: 0.7
- Binding of a rabbit serum to looped peptides [2]: 0.4
- Binding of Control Serum Blood-Bank to Looped peptides [3]: 0.6
- Binding of Control serum Blood-bank to linear peptides [3]: 0.6
- Binding of Control serum LUMC to linear peptides [3]: 0.8
- Binding of Control serum LUMC to looped peptides [3]: 0.5
